ChEMBL document CHEMBL1149804, “Bioactivity of novel transition metal complexes of N'-[(4-methoxy)thiobenzoyl]benzoic acid hydrazide” (Eur J Med Chem, 2008)

Tests used:
HT-29 = experiment: Antiproliferative activity against human HT29 cells after 48 hrs by MTT assay; format: functional, cell-based; settings: HT-29, 48 h
[1] = Inhibition of human recombinant N-myristoyltransferase

Q: Which results are given for `COc1ccc(C(=S)NNC(=O)c2ccccc2)cc1`?
A: IC50 (HT-29): 90.9 µM; IC50 [1]: 3200 µM
